Test system: α7 integrin promoter
Assay: muscle cell-based assay: α7βgal+/− myoblasts/myotubes, LacZ reporter, β-galactosidase cleavage of FDG
Parameters: species or system mouse; Results in α7+/− β-galactosidase assay: scale not given here
Settings: for Results in a α7+/− β-galactosidase assay, Myotubes, 0.5 uM: compound at 0.5 uM; for Results in a α7+/− β-galactosidase assay, Myotubes, 1 uM: compound at 1 uM; for Results in a α7+/− β-galactosidase assay, Myotubes, 5 uM: compound at 5 uM; for Results in a α7+/− β-galactosidase assay, Myotubes, 10 uM: compound at 10 uM; for Results in a α7+/− β-galactosidase assay, Myotubes, 20 uM: compound at 20 uM; for Results in a α7+/− β-galactosidase assay, Myotubes, 40 uM: compound at 40 uM; for AC50 / Emax: Mus musculus; for AC50 / Fit HillSlope / Fit Zero Activity [%] / Fit Curve Class: Table 12; for AC50: log of AC50, given with negative sign, unit of AC50 not given, read-out: Fit Log AC50 (converted); for Emax: read-out: Max Response [%]; for Fit HillSlope: curve fit; for Fit Zero Activity [%]: fitted activity at zero concentration; for Fit Curve Class: key not given; for Score: Table 12 Compound data, concentration-response curve fit
In short: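 Fluorescein generated from FDG by β-galactosidase reports α7 integrin promoter activity in differentiated myoblasts from α7+/− LacZ knock-in pups. Screening hits then went to dose-response, western blotting and a myostatin counterscreen.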

SMILES: Cc1nnc(-c2ccc(N3CCOCC3)c([N+](=O)[O-])c2)o1 [drawing 338]
- Results in a α7+/− β-galactosidase assay, Myotubes, 0.5 uM (Myotubes): 0.0728
- Results in a α7+/− β-galactosidase assay, Myotubes, 1 uM (Myotubes): 0.1596
- Results in a α7+/− β-galactosidase assay, Myotubes, 5 uM (Myotubes): −0.09085
- Results in a α7+/− β-galactosidase assay, Myotubes, 10 uM (Myotubes): −0.1238
- Results in a α7+/− β-galactosidase assay, Myotubes, 20 uM (Myotubes): 0.04847
- Results in a α7+/− β-galactosidase assay, Myotubes, 40 uM (Myotubes): −0.1846

SMILES: Cn1ccc(C(=O)Nc2cccnc2Cl)n1 [drawing 710]
- Result in α7+/− β-galactosidase assay (Myoblasts, 0.5 uM): 0.1419
- Result in α7+/− β-galactosidase assay (Myoblasts, 1 uM): 0.09145
- Result in α7+/− β-galactosidase assay (Myoblasts, 5 uM): 0.0569
- Result in α7+/− β-galactosidase assay (Myoblasts, 10 uM): 0.1922
- Result in α7+/− β-galactosidase assay (Myoblasts, 20 uM): −0.0349
- Result in α7+/− β-galactosidase assay (Myoblasts, 40 uM): −0.1785

SMILES: O=C(N[C@@H](Cc1c[nH]c2ccccc12)C(=O)O)C1CCN(S(=O)(=O)c2cccs2)CC1 [drawing 622]
- Results in α7+/− β-galactosidase assay (Myoblasts, 0.5 uM): −0.07999
- Results in α7+/− β-galactosidase assay (Myoblasts, 1 uM): −0.01966
- Results in α7+/− β-galactosidase assay (Myoblasts, 5 uM): −0.1194
- Results in α7+/− β-galactosidase assay (Myoblasts, 10 uM): −0.09397
- Results in α7+/− β-galactosidase assay (Myoblasts, 20 uM): −0.02534
- Results in α7+/− β-galactosidase assay (Myoblasts, 40 uM): −0.04251

SMILES: Cc1ccc(NCc2nnc(SCC(=O)Nc3nnc(C)s3)n2C)cc1 [Compound 51]
- AC50: 10 µM
- Emax: 249%
- Fit HillSlope: 4.9549
- Fit Zero Activity [%]: −23.8252%
- Fit Curve Class: 2.1
- Score: 46

SMILES: CCN1C(=O)/C(=C(/C#N)c2nc3ccccc3[nH]2)c2ccccc21 [drawing 524]
- Results in α7+/− β-galactosidase assay (Myoblasts, 0.5 uM): −0.1641
- Results in α7+/− β-galactosidase assay (Myoblasts, 1 uM): −0.1562
- Results in α7+/− β-galactosidase assay (Myoblasts, 5 uM): −0.1933
- Results in α7+/− β-galactosidase assay (Myoblasts, 10 uM): −0.1296
- Results in α7+/− β-galactosidase assay (Myoblasts, 20 uM): −0.2594
- Results in α7+/− β-galactosidase assay (Myoblasts, 40 uM): −0.241

SMILES: CC(C)NC(=O)CN1CCN(C(=O)CCl)CC1.Cl [Compound 62]
- AC50: 7.08 µM
- Fit HillSlope: 1.9673
- Fit Zero Activity [%]: −23.864%
- Fit Curve Class: 2.1
- Score: 45

SMILES: CCC(C)NC(=O)CSc1nnc(COc2ccc(Br)cc2)o1 (centres unmarked) [drawing 391]
- Results in a α7+/− β-galactosidase assay, Myotubes, 0.5 uM (Myotubes): −0.04347
- Results in a α7+/− β-galactosidase assay, Myotubes, 1 uM (Myotubes): −0.169
- Results in a α7+/− β-galactosidase assay, Myotubes, 5 uM (Myotubes): −0.2461
- Results in a α7+/− β-galactosidase assay, Myotubes, 10 uM (Myotubes): −0.2857
- Results in a α7+/− β-galactosidase assay, Myotubes, 20 uM (Myotubes): −0.2196
- Results in a α7+/− β-galactosidase assay, Myotubes, 40 uM (Myotubes): −0.2848

SMILES: COc1ccc(NC(=O)c2cccc(N3C(=O)c4ccc(C(=O)Nc5ccc(OC)c(O)c5)cc4C3=O)c2)cc1O [Compound 13]
- AC50: 4.47 µM
- Emax: 95.6%
- Fit HillSlope: 3.9295
- Fit Zero Activity [%]: −27.2857%
- Fit Curve Class: 1.1
- Score: 84

SMILES: Cc1cc(C)c(/C=C2\C(=O)Nc3ccccc32)[nH]1 [drawing 510]
- Results in α7+/− β-galactosidase assay (Myotubes, 0.5 uM): −0.2205
- Results in α7+/− β-galactosidase assay (Myotubes, 1 uM): −0.08303
- Results in α7+/− β-galactosidase assay (Myotubes, 5 uM): −0.5223
- Results in α7+/− β-galactosidase assay (Myotubes, 10 uM): −0.3378
- Results in α7+/− β-galactosidase assay (Myotubes, 20 uM): −0.232
- Results in α7+/− β-galactosidase assay (Myotubes, 40 uM): −0.06918

SMILES: Cn1c(-c2ccccc2)cc2ccccc21 [drawing 419]
- Results in a α7+/− β-galactosidase assay, Myotubes, 0.5 uM (Myotubes): −0.1946
- Results in a α7+/− β-galactosidase assay, Myotubes, 1 uM (Myotubes): −0.1516
- Results in a α7+/− β-galactosidase assay, Myotubes, 5 uM (Myotubes): 0.03646
- Results in a α7+/− β-galactosidase assay, Myotubes, 10 uM (Myotubes): 0.2623
- Results in a α7+/− β-galactosidase assay, Myotubes, 20 uM (Myotubes): −0.2495
- Results in a α7+/− β-galactosidase assay, Myotubes, 40 uM (Myotubes): −0.1512

SMILES: N=C(NOC(=O)c1cccc(C(F)(F)F)c1)c1cnccn1 [drawing 369]
- Results in a α7+/− β-galactosidase assay, Myotubes, 0.5 uM (Myotubes): 0.07542
- Results in a α7+/− β-galactosidase assay, Myotubes, 1 uM (Myotubes): 0.07664
- Results in a α7+/− β-galactosidase assay, Myotubes, 5 uM (Myotubes): −0.08801
- Results in a α7+/− β-galactosidase assay, Myotubes, 10 uM (Myotubes): −0.1676
- Results in a α7+/− β-galactosidase assay, Myotubes, 20 uM (Myotubes): −0.1858
- Results in a α7+/− β-galactosidase assay, Myotubes, 40 uM (Myotubes): −0.1541

SMILES: CC(=O)C1=C(C)Nc2ncnn2C1c1ccc(C)cc1 (centres unmarked) [drawing 655]
- Results in α7+/− β-galactosidase assay (Myoblasts, 0.5 uM): −0.08387
- Results in α7+/− β-galactosidase assay (Myoblasts, 1 uM): 0.003197
- Results in α7+/− β-galactosidase assay (Myoblasts, 5 uM): 0.2805
- Results in α7+/− β-galactosidase assay (Myoblasts, 10 uM): −0.01305
- Results in α7+/− β-galactosidase assay (Myoblasts, 20 uM): −0.1533
- Results in α7+/− β-galactosidase assay (Myoblasts, 40 uM): −0.247

SMILES: CCOc1ccc(Br)cc1S(=O)(=O)Nc1ccc(C(=O)Nc2ccccc2OC)cc1 [drawing 451]
- Results in a α7+/− β-galactosidase assay, Myotubes, 0.5 uM (Myotubes): 0.1091
- Results in a α7+/− β-galactosidase assay, Myotubes, 1 uM (Myotubes): 0.02499
- Results in a α7+/− β-galactosidase assay, Myotubes, 5 uM (Myotubes): −0.02123
- Results in a α7+/− β-galactosidase assay, Myotubes, 10 uM (Myotubes): −0.1229
- Results in a α7+/− β-galactosidase assay, Myotubes, 20 uM (Myotubes): −0.2419
- Results in a α7+/− β-galactosidase assay, Myotubes, 40 uM (Myotubes): −0.2407

SMILES: O=C1Nc2ccccc2/C1=C/c1c[nH]c(-c2ccccc2)n1 [drawing 340]
- Results in a α7+/− β-galactosidase assay, Myotubes, 0.5 uM (Myotubes): 0.05652
- Results in a α7+/− β-galactosidase assay, Myotubes, 1 uM (Myotubes): 0.1643
- Results in a α7+/− β-galactosidase assay, Myotubes, 5 uM (Myotubes): 0.09489
- Results in a α7+/− β-galactosidase assay, Myotubes, 10 uM (Myotubes): −0.07868
- Results in a α7+/− β-galactosidase assay, Myotubes, 20 uM (Myotubes): −0.03697
- Results in a α7+/− β-galactosidase assay, Myotubes, 40 uM (Myotubes): −0.06801

Reference: patent publication US10028992B2, “Methods of treating muscular dystrophy” (BOARD OF REGENTS OF THE NEVADA SYSTEM OF HIGHER EDUCATION …, priority 2012, dated 2018)
